# Measured values as given in patent publication US11339171B2, “MDM2 inhibitors” (Gan & Lee Pharmaceuticals, priority 2017, dated 2022).
# pIC50: −log10 of the molar value. Several values for one entry are separate records, joined by “and”; a condition that tells them apart may be missing. Equal entries are not always repeated. Where two headings read alike, the source gives them in different places.
# Columns and labels:
# MDM2 = target: T1, MDM2 (Homo sapiens, UniProt Q00987); assay: Inhibition test of MDM2-P53 (GST-MDM2, Biotin-P53, Anti-GST-Tb, SA-XL665); format: binding
# T1 construct: made in house
# Outline: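 Binding was measured by TR-FRET with GST-MDM2 at 4 nM final in PBS with 0.1% BSA, 5 mM DTT and 1 mM AEBSF. Compounds were tested as twelve-point 5-fold dilutions and incubated with the detection mix for 90 min at 25 °C with shaking before plate-reader reading and curve fitting.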
# [1] = test system: human osteosarcoma cell line SJSA-1; assay: Inhibition of proliferation of human osteosarcoma cell line SJSA-1 (DAPI staining, In Cell Analyzer); settings: Homo sapiens, SJSA-1, 72 h, read-out: IC50 (nM), inhibitory activity on proliferation of human osteosarcoma cell line SJSA-1, SJSA-1, incubated 72 h
# [2] = Pharmacokinetics in ICR mice after intravenous and intragastric administration; format: in vivo; settings: for MRT last: read-out: MRT(0-t); for MRT inf: read-out: MRT(0-∞); for Vd: read-out: Vz; for half-life: read-out: t1/2 (converted)
# Outline: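 Single-dose mouse PK study: i.v. 2 mg/kg and intragastric 5 mg/kg to fasted male ICR mice, three animals per arm. Exposure and disposition parameters (Cmax, Tmax, AUC, t1/2, F, CL, Vz) came from LC-MS/MS plasma levels.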
# [3] = ICR mice, IV 2 mg/kg, individual animal, 2 mg/kg
# [4] = ICR mice, PO 5 mg/kg, individual animal, 5 mg/kg
# [5] = male, ICR, mouse, plasma, iv, 2 mg/kg, ICR mice, IV 2 mg/kg, individual animal
# [6] = male, ICR, mouse, plasma, iv, 2 mg/kg, ICR mice, IV 2 mg/kg, mean of 3 animals
# [7] = male, ICR, mouse, plasma, po, 5 mg/kg, ICR mice, PO 5 mg/kg, individual animal
# [8] = male, ICR, mouse, plasma, po, 5 mg/kg, ICR mice, PO 5 mg/kg, mean of 3 animals
# T1 sequence (Q00987 whole entry): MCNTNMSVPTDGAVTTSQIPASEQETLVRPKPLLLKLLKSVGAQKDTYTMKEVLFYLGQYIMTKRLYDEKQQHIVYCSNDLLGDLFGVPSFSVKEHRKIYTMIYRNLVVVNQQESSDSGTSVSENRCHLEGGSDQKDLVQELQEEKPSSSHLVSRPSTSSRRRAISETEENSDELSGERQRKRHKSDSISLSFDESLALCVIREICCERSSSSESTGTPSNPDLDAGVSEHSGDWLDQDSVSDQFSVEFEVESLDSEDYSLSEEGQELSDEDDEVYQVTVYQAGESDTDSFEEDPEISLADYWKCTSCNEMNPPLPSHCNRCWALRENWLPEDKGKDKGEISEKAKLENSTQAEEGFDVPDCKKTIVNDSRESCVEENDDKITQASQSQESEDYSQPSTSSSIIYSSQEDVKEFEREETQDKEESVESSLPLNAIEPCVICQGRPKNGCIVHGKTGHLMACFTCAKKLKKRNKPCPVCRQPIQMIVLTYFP
smiles,measurement,setting,value
"COc1cc(OC)c(-c2nc3c(n2C(C)C)[C@@]2(C(=O)Nc4cc(Cl)ccc42)N(c2cccc(Cl)c2)C3=O)cn1 [Example S-115, (S)-6-chloro-5′-(3-chlorophenyl)-2′-(4,6-dimethoxypyridin-3-yl)-3′-isopropyl-3′H-spiro[dihydroindole-3,4′-pyrrolo[3,4-d]imidazole]-2,6′(5′H)-dione]",pIC50,MDM2,8.89
same,IC50,[1],3360 nM
same,AUC(0-t),[2]; [3],2278.66 ng·h/mL and 2987.42 ng·h/mL
same,AUC(0-∞),[2]; [3],2289.66 ng·h/mL and 3011.30 ng·h/mL
same,CL,[2]; [3],14.56 mL/min/kg and 11.07 mL/min/kg
same,Cmax,[2]; [3],2549.96 ng/mL and 4136.98 ng/mL
same,MRT(0-t),[2]; [3],47.4 min and 49.2 min
same,MRT(0-∞),[2]; [3],49.2 min and 52.2 min
same,Vz,[2]; [3],1.01 L/kg and 0.87 L/kg
same,t1/2,[2]; [3],48 min
same,AUC(0-t),[2]; [4],2355.30 ng·h/mL and 2985.59 ng·h/mL
same,AUC(0-∞),[2]; [4],2377.88 ng·h/mL and 3066.25 ng·h/mL
same,Cmax,[2]; [4],2135.46 ng/mL and 834.66 ng/mL and 601.29 ng/mL
same,MRT(0-t),[2]; [4],82.2 min and 128 min and 193 min
same,MRT(0-∞),[2]; [4],84.6 min and 132 min and 203 min
same,Tmax,[2]; [4],30 min and 60 min and 240 min
same,t1/2,[2]; [4],71.4 min and 67.2 min
same,AUC(0-inf),[2]; [5],2590 ng·h/mL
same,clearance,[2]; [5],12.9 mL/min/kg
same,AUC(0-t),"[2]; male, ICR, mouse, plasma, iv, 2 mg/kg, ICR mice, IV 2 mg/kg, individual animal, read-out: AUC(0-t)",2580 ng·h/mL
same,Cmax,"[2]; male, ICR, mouse, plasma, iv, 2 mg/kg, ICR mice, IV 2 mg/kg, individual animal, read-out: Cmax",3000 ng/mL
same,MRT last,[2]; [5],54 min
same,MRT inf,[2]; [5],56.4 min
same,Tmax,"[2]; male, ICR, mouse, plasma, iv, 2 mg/kg, ICR mice, IV 2 mg/kg, individual animal, read-out: Tmax",4.8 min
same,Vd,[2]; [5],1 L/kg
same,half-life,[2]; [5],54 min
same,AUC(0-inf),[2]; [6],2630 ng·h/mL
same,clearance,[2]; [6],12.8 mL/min/kg
same,AUC(0-t),"[2]; male, ICR, mouse, plasma, iv, 2 mg/kg, ICR mice, IV 2 mg/kg, mean of 3 animals, read-out: AUC(0-t)",2610 ng·h/mL
same,Cmax,"[2]; male, ICR, mouse, plasma, iv, 2 mg/kg, ICR mice, IV 2 mg/kg, mean of 3 animals, read-out: Cmax",3230 ng/mL
same,MRT last,[2]; [6],50.4 min
same,MRT inf,[2]; [6],52.8 min
same,Tmax,"[2]; male, ICR, mouse, plasma, iv, 2 mg/kg, ICR mice, IV 2 mg/kg, mean of 3 animals, read-out: Tmax",4.98 min
same,Vd,[2]; [6],0.96 L/kg
same,half-life,[2]; [6],52.2 min
same,AUC(0-inf),[2]; [7],3670 ng·h/mL
same,AUC(0-t),"[2]; male, ICR, mouse, plasma, po, 5 mg/kg, ICR mice, PO 5 mg/kg, individual animal, read-out: AUC(0-t)",3660 ng·h/mL
same,half-life,[2]; [7],64.2 min
same,AUC(0-inf),[2]; [8],3040 ng·h/mL
same,AUC(0-t),"[2]; male, ICR, mouse, plasma, po, 5 mg/kg, ICR mice, PO 5 mg/kg, mean of 3 animals, read-out: AUC(0-t)",3000 ng·h/mL
same,Cmax,"[2]; male, ICR, mouse, plasma, po, 5 mg/kg, ICR mice, PO 5 mg/kg, mean of 3 animals, read-out: Cmax",1190 ng/mL
same,MRT last,[2]; [8],134 min
same,MRT inf,[2]; [8],140 min
same,Tmax,"[2]; male, ICR, mouse, plasma, po, 5 mg/kg, ICR mice, PO 5 mg/kg, mean of 3 animals, read-out: Tmax",110 min
same,half-life,[2]; [8],67.2 min
same,AUC(0-t),"[2]; male, ICR, mouse, plasma, po, 5 mg/kg, oral intragastric administration 5 mg/kg, read-out: AUC0-t",3000 ng·h/mL
same,bioavailability,"[2]; male, mouse, plasma, ICR mice, PO 5 mg/kg vs IV 2 mg/kg, from mean values, read-out: F* (bioavailability)",45.9%
